According to US10174348B2, “Bacteria engineered for ester production” (priority 2013, dated 2019):
Values after ≈ are worked out from the molar mass of the structure shown.

Columns and labels:
[1] = system: pyruvate dehydrogenase complex; experiment: KDHC activity assay, negative control strain lysate; type: biochemical, E. coli; conditions: 25 mM 2-keto acid, 30° C.
Procedure: Cells were grown to an OD600 of ˜0.4 in 5 mL LB medium at 37° C., followed by adding 1 mM IPTG. Protein expression was performed at 30° C. for 2 h. Then 1.8 mL of cells were centrifuged at 16,000×g for 10 min, resuspended in 300 μL BugBuster Protein Extraction Reagent (Novagen), and incubated at room temperature for 20 min for cell lysis. Then samples were centrifuged for 20 min, 16,000×g, at 2° C. The soluble fractions were transferred to chilled 1.5 mL tubes, and the insoluble fractions were suspended in 200 μL BugBuster forming a slurry and kept on ice. KDHC activities were measured by following the conversion of 2-keto acids to acyl-CoA with NAD^+ at 340 nm at 30° C. using a Synergy H1 Hybrid Plate Reader (BioTek Instruments, Inc.). […] Protein concentrations were measured using 5× Advanced Protein Assay Reagent (Cytoskeleton Inc.). […]
To confirm the activity of KDHC, cell lysates from each strain were prepared and activity was tested in vitro with pyruvate, 2-ketovalerate, 2-ketoisovalerate, 3-methylketovalerate, or 4-methylketovalerate as substrate. Activity was measured by detecting the reduction of NAD^+ in the presence of CoA. […]

[2] = system: AL2045; conditions: AL2045 with the acetate assimilating pathway (ackA-pta); 10 g/L acetate
Procedure: (§1) Growth of strains in culture medium containing 10 g/L glucose, 10 g/L acetate, or 10 g/L glucose and 10 g/L acetate was compared. Cells were grown at 37° C. on a rotary shaker (250 rpm). Overnight cultures were grown in 3 mL Luria Broth containing appropriate antibiotics. The overnight cultures were inoculated 1% in 5 mL M9 minimal media (containing appropriate antibiotics and 1 mM IPTG) and labeled carbon source in 15-ml screw-cap tubes.
(§2) Next, the growth of JCL260 and AL2045, which contains ΔaceEF with and without the acetate assimilating pathway (ackA-pta), was compared (FIG. 21).

[3] = system: JCL260; conditions: JCL260 without the acetate assimilating pathway; 10 g/L acetate
Procedure: as §1, §2

[4] = cited from earlier work
[5] = Partitioning between hexadecane layer and culture during production; type: physicochemical; conditions: equal volume of hexadecane over the culture
Procedure: Cells were grown in 20 mL media in 250 mL screw-cap flasks at 37° C. until OD600 0.4, then 1 mM IPTG was added. […] Errors are SD (n=3). […] Then 20 mL of culture was transferred to a 250 mL screw-cap flask. […] The strong agitation at which the flask was shaking caused the hexadecane layer to become an emulsion with micelles of culture, but the majority of the culture layer underneath is discernible. The cultures were allowed to produce at 30° C. on a rotary shaker (250 rpm) for 24-96 h. […] For hexadecane layer assisted isobutyl acetate production, the centrifugation of the hexadecane samples separates the aqueous and hexadecane layer into two clear layers. […] The same volume of ethyl acetate (Sigma-Aldrich) as culture was added into the tubes to extract tetradecyl acetate and isobutyl isobutyrate after production at room temperature. These samples were mixed for 1 min and settled for 30 min on ice. The each sample was centrifuged with 20,000×g for 1 min. Then, 1 mL of supernatant was taken for GC analysis.

[6] = system: E. coli JCL260; experiment: Effect of isobutyl acetate on E. coli growth (toxicity experiments); type: cell-based; conditions: 3 g L^−1 isobutyl acetate; JCL260, 30° C., M9P with 50 g L^−1 glucose
Procedure: JCL260 was grown at 30° C. in 5 mL M9P media containing 50 g L^−1 glucose in 15 mL screw-cap tubes. Black Arrow indicates the time point when isobutyl acetate: none (light gray), 1 g L^−1 (black), or 3 g L^−1 (dark gray) was added into culture. Error bars are SD (n=3).
This strain produced 4.5-fold more isobutyl acetate (2.7 g L^−1) in the first 24 h compared to JCL260 (FIG. 12b-c). This production represents 60% of the theoretical maximum yield (0.42 g isobutyl acetate/g glucose).

CCCC(=O)C(=O)O [2-ketovalerate]
activity of negative control strain with 2-keto acid as substrate [1]: 30 nmol NADH/min/mg protein

CC(=O)O [Acetate]
effect of acetate on growth [2]: enhanced the growth
effect of acetate on growth [3]: inhibited the growth

CC(C)COC(=O)C(C)C [Isobutyl isobutyrate, isobutyl isobutyrate]
water solubility [4]: 520 µg/mL (≈ 3.61 mM)

CC(C)CO [isobutanol]
remained in the culture [5]: 86%

CC(=O)OCC(C)C [isobutyl acetate]
E. coli growth in the presence of isobutyl acetate [6]: unable to grow
extracted into the hexadecane [5]: 97%
